This note sets out measurements from ChEMBL document CHEMBL4251555, “Synthesis, antitumor evaluation and microarray study of some new pyrazolo[3,4-d][1,2,3]triazine derivatives” (Eur J Med Chem, 2017).

The test system of series [1] is Huh-7. Description: Cytotoxicity against human HuH7 cells after 48 hrs by resazurin assay. To be noted: Huh-7, 48 h. Format: functional, cell-based.
In series [2] the test system is PANC-1. In words: Cytotoxicity against human PANC1 cells after 48 hrs by resazurin assay. Type of series: functional, cell-based. As to conditions: PANC-1, 48 h.
The next series deals with CCRF-CEM. Description: Cytotoxicity against human CCRF-CEM cells after 48 hrs by resazurin assay. Format: functional, cell-based.
A further series deals with TERT-RPE1. In words: Cytotoxicity against human RPE1 cells after 48 hrs by resazurin assay. As to conditions: RPE-1, 48 h. Type of series: cell-based.
The nature of series [3]: Selectivity index, ratio of IC50 for human RPE1 cells to IC50 for human HuH7 cells. Type of series: toxicity. As to conditions: RPE1 cells versus HuH7 cells, read-out: Ratio IC50.
Series [4] in a line: Selectivity index, ratio of IC50 for human RPE1 cells to IC50 for human PANC1 cells. Type of series: toxicity. As to conditions: RPE1 cells versus PANC1 cells, read-out: Ratio IC50.
The nature of series [5]: Selectivity index, ratio of IC50 for human RPE1 cells to IC50 for human CCRF-CEM cells. Format: toxicity. To be noted: RPE1 cells versus CCRF-CEM cells, read-out: Ratio IC50.
Series [6] has as its system Huh-7. Description: Induction of apoptosis in human HuH7 cells assessed as caspase-3/7 activation after 24 hrs by Caspase-Glo assay. Format: functional, cell-based.
In series [7] the test system is PANC-1. Description: Induction of apoptosis in human PANC1 cells assessed as caspase-3/7 activation after 24 hrs by Caspase-Glo assay. Type of series: functional, cell-based.
Series [8] deals with Huh-7. In words: Upregulation of SLC26A3 gene expression in human HuH7 cells after 48 hrs by micro-array analysis relative to control. Type of series: functional.
For series [9], the system named is Huh-7. Description: Upregulation of UGT1A1 gene expression in human HuH7 cells after 48 hrs by micro-array analysis relative to control. Type of series: functional.
Series [10] relates to Huh-7. Description: Upregulation of UGT2B15 gene expression in human HuH7 cells after 48 hrs by micro-array analysis relative to control. Type of series: functional.
Series [11] deals with Huh-7. In words: Upregulation of UGT2B7 gene expression in human HuH7 cells after 48 hrs by micro-array analysis relative to control. Format: functional.
The test system of series [12] is Huh-7. Description: Upregulation of DNASE1 gene expression in human HuH7 cells after 48 hrs by micro-array analysis relative to control. Type of series: functional.
Series [13] deals with Huh-7. Description: Upregulation of MUCDH1 gene expression in human HuH7 cells after 48 hrs by micro-array analysis relative to control. Type of series: functional.
In series [14] the test system is Huh-7. In words: Upregulation of UGT2B17 gene expression in human HuH7 cells after 48 hrs by micro-array analysis relative to control. Format: functional.
Series [15] has as its system Huh-7. Description: Downregulation of GIP3 gene expression in human HuH7 cells after 48 hrs by micro-array analysis relative to control. Type of series: functional.
In series [16] the test system is Huh-7. In words: Downregulation of TAGLN gene expression in human HuH7 cells after 48 hrs by micro-array analysis relative to control. Type of series: functional.
The test system of series [17] is Huh-7. In words: Downregulation of THBS1 gene expression in human HuH7 cells after 48 hrs by micro-array analysis relative to control. Type of series: functional.
Series [18] has as its system Huh-7. Description: Downregulation of IFI27 gene expression in human HuH7 cells after 48 hrs by micro-array analysis relative to control. Format: functional.
The test system of series [19] is Huh-7. In words: Downregulation of FSCN1 gene expression in human HuH7 cells after 48 hrs by micro-array analysis relative to control. Format: functional.
Series [20] relates to Huh-7. Description: Downregulation of SOCS2 gene expression in human HuH7 cells after 48 hrs by micro-array analysis relative to control. Format: functional.

For the compound `CCOc1ccc(NC(=O)c2c(N)n[nH]c2NC)cc1`, the IC50 with Huh-7 [1] is 21.8 µM; with PANC-1 [2], 31 µM; in the series on CCRF-CEM it was 7.9 µM; in the series with TERT-RPE1 it was > 100 µM. Also, the selectivity ratio is > 4.6 in [3], > 3.2 in series [4] and > 12.7 in series [5].

In the case of `C=CCNc1[nH]nc(N)c1C(=O)Nc1ccc(OCC)cc1`, the IC50 with Huh-7 [1] is 22 µM; with PANC-1 [2], 30.8 µM; in the series on CCRF-CEM, 6.56 µM; in the series with TERT-RPE1 it was > 100 µM. Besides, the selectivity ratio was > 4.5 in series [3], > 3.2 in [4] and > 15.2 in [5].

For `CCNc1[nH]nc2nnn(-c3ccc(OCC)cc3)c(=O)c12`, the concentration for half-maximal inhibition (IC50) with Huh-7 [1] was 14.4 µM; with PANC-1 [2], 16.1 µM; in the series on CCRF-CEM it was 15.2 µM; with TERT-RPE1, > 100 µM. Moreover, the figures for the selectivity ratio in series [3], in series [4] and in series [5] were > 6.9, > 6.2 and > 6.6, respectively.

As for `C=CCNc1[nH]nc2nnn(-c3ccc(OCC)cc3)c(=O)c12`, the IC50 was 4.94 µM in the series on Huh-7 [1], 13.3 µM in the series on PANC-1 [2], 4.73 µM in the series with CCRF-CEM and > 100 µM in the series on TERT-RPE1. Further, the selectivity ratio in series [3] was > 20.3; in series [4], > 7.5; in [5], > 21.2. The Activity result in the series with Huh-7 [6] and in the series on PANC-1 [7] was “Dose-dependent effect” in each case. For the same compound, the “fold change (FC)” value with Huh-7 [8], in the series on Huh-7 [9], in the series on Huh-7 [10], in the series with Huh-7 [11], in the series on Huh-7 [12] and in the series on Huh-7 [13] was “>=3 - 6” each time. Further, the “fold change (FC)” value with Huh-7 [14] is on record as “>=3 - 6”; in the series on Huh-7 [15] it was >4; in the series with Huh-7 [16], >4; in the series with Huh-7 [17], >4; in the series with Huh-7 [18] it was >4; with Huh-7 [19], >4. In addition, the “fold change (FC)” value in the series with Huh-7 [20] is on record as >4.

As for `CCOc1ccc(-n2nnc3n[nH]c(NC)c3c2=O)cc1`, the IC50 is 7.01 µM in the series on Huh-7 [1], 9.92 µM in the series on PANC-1 [2], 12.4 µM in the series on CCRF-CEM and > 100 µM with TERT-RPE1. Moreover, the selectivity ratio in series [3] was > 14.3; in [4], > 10.1; in series [5], > 8.1. Further, the Activity entry with Huh-7 [6] and with PANC-1 [7] was “Dose-dependent effect” each time.

As to `CCOc1ccc(NC(=O)c2c(N)n[nH]c2NC23CC4CC(CC(C4)C2)C3)cc1`, the IC50 with Huh-7 [1] came to 10.6 µM; in the series with PANC-1 [2], 13.2 µM; in the series with CCRF-CEM, 15.2 µM; with TERT-RPE1, 81.2 µM. For the same compound, the selectivity ratio in series [3] came to 7.6; in series [4] it was 6.2; in series [5], 5.3.

Turning to `CCN/C(SC)=C(/C#N)C(=O)Nc1ccc(OCC)cc1`, the IC50 in the series on Huh-7 [1] was 16.4 µM; in the series on PANC-1 [2] it was 41.6 µM; in the series on CCRF-CEM, 9.89 µM; in the series on TERT-RPE1, > 100 µM. In addition, the selectivity ratio in series [3] is > 6.1; in series [4], > 2.4; in [5] it was > 10.1.

In the case of `CCOc1ccc(NC(=O)c2c(N)n[nH]c2Nc2ccccc2)cc1`, the IC50 in the series on Huh-7 [1] came out at 4.32 µM; with PANC-1 [2] it was 21 µM; in the series with CCRF-CEM, 4.47 µM; with TERT-RPE1, 67.8 µM. Further, the selectivity ratio in [3] turned out to be 15.7; in [4], 3.2; in series [5] it was 15.1.

As to `CCOc1ccc(-n2nnc3n[nH]c(Nc4ccccc4)c3c2=O)cc1`, the IC50 in the series with Huh-7 [1] was 9.39 µM; in the series on PANC-1 [2], 13.1 µM; in the series on CCRF-CEM, 5.92 µM; with TERT-RPE1, > 100 µM. Besides, the selectivity ratio in series [3] is > 10.6; in series [4] it was > 7.6; in [5] it was > 16.9.

In the case of `COc1cccc2c1C(=O)c1c(O)c3c(c(O)c1C2=O)C[C@@](O)(C(=O)CO)C[C@@H]3O[C@H]1C[C@H](N)[C@H](O)[C@H](C)O1` [DOXORUBICIN], the values for the IC50 in the series with Huh-7 [1] and with TERT-RPE1 were 5.43 µM and 14 µM, respectively.

In the case of `CCOc1ccc(-n2nnc3n[nH]c(NC45CC6CC(CC(C6)C4)C5)c3c2=O)cc1`, the IC50 in the series on Huh-7 [1] was 23.2 µM; in the series with PANC-1 [2], 4.41 µM; in the series with CCRF-CEM it was 15.6 µM; in the series with TERT-RPE1, > 100 µM. Besides, the figures for the selectivity ratio in series [3], in series [4] and in series [5] were > 4.3, > 22.7 and > 6.4, respectively.

Consider `CCNc1[nH]nc(N)c1C(=O)Nc1ccc(OCC)cc1`, for which the IC50 with Huh-7 [1] is 27 µM; in the series with PANC-1 [2], 14.8 µM; in the series on CCRF-CEM, 14 µM; in the series with TERT-RPE1 it was > 100 µM. Moreover, the selectivity ratio in series [3] was > 3.7; in series [4], > 6.8; in [5], > 7.2.

In the case of `CCOc1ccc(NC(=O)CC#N)cc1`, the IC50 in the series with Huh-7 [1] was 21.5 µM; with PANC-1 [2], 43.9 µM; in the series with CCRF-CEM it was 14.1 µM; in the series on TERT-RPE1, > 100 µM. Further, the selectivity ratio is > 4.6 in series [3], > 2.3 in [4] and > 7.1 in series [5].

With `CCOc1ccc(NC(=O)/C(C#N)=C(\NC23CC4CC(CC(C4)C2)C3)SC)cc1`, the IC50 is 10 µM with Huh-7 [1], 23.7 µM in the series on PANC-1 [2], 17.6 µM in the series on CCRF-CEM and > 100 µM with TERT-RPE1. Also, the results for the selectivity ratio in [3], in series [4] and in [5] were > 10, > 4.2 and > 5.7, respectively.

Turning to `CCOc1ccc(NC(=O)/C(C#N)=C(\NC)SC)cc1`, the IC50 in the series with Huh-7 [1] is 5.78 µM; in the series with PANC-1 [2], 26.4 µM; with CCRF-CEM, 9.94 µM; with TERT-RPE1 it was > 100 µM. In addition, the selectivity ratio in series [3] was > 17.3; in series [4], > 3.8; in series [5], > 10.1. Further, the Activity result in the series with Huh-7 [6] and in the series with PANC-1 [7] was “Dose-dependent effect” each time.

As to `CCOc1ccc(NC(=O)/C(C#N)=C(\Nc2ccccc2)SC)cc1`, the IC50 in the series on Huh-7 [1] was 25.3 µM; in the series on PANC-1 [2], 49.3 µM; with CCRF-CEM it was 20.3 µM; with TERT-RPE1 it was > 100 µM. Moreover, the selectivity ratio was > 4 in [3], > 2 in series [4] and > 4.9 in [5].

Turning to `C=CCN/C(SC)=C(/C#N)C(=O)Nc1ccc(OCC)cc1`, the IC50 with Huh-7 [1] is 8.85 µM; in the series with PANC-1 [2], 21.8 µM; in the series on CCRF-CEM, 18.5 µM; with TERT-RPE1, > 100 µM. Further, the selectivity ratio was > 11.3 in series [3], > 4.6 in series [4] and > 5.4 in series [5]. The Activity entry in the series with Huh-7 [6] and in the series with PANC-1 [7] was “Dose-dependent effect” throughout.
